This experiment deals with HEK293 cells. Put plainly: Preliminary screening as DNA vectors, GFP transfection of HEK293 cells. It counts as cell-based. The settings on record: amino lipid/DOPE liposome with 75 ng plasmid DNA (psin-EGFP-IRES-Puro); number of GFP-expressing cells divided by total nuclei (Hoechst). The gist of the method:
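First, amino lipid and DOPE were vortexed in sodium acetate buffer (pH 5.6) to form liposomes. Next, these were held with 75 ng EGFP plasmid at room temperature for 30 min. Finally, HEK293 cells were added, cultured at 37° C., Hoechst-stained, and GFP+/total nuclei scored by imaging.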

As to `CCCCCCCCCCCCN(CCCCCCCCCCCC)c1nc(NCCN(CC)CC)nc(SCCCCCCCCCCC)n1` [S11^2N12 D7], the “Absolute DNA transfection efficiency in HEK293 cells” value (shortened to “Absolute DNA transfection efficiency”) was 0.1%.

In the case of `CCCCCCCCCCCCN(CCCCCCCCCCCC)c1nc(NCCCN2CCOCC2)nc(SCCCCCCCCCCC)n1` [S11^2N12 D8], the “Absolute DNA transfection efficiency” value came to 0.0%.

As to `CCCCCCCCCCCCN(CCCCCCCCCCCC)c1nc(NCCCN2CCN(C)CC2)nc(SCCCCCCCCCCC)n1` [S11^2N12 D9], the “Absolute DNA transfection efficiency” value is 0.0%.

Turning to `CCCCCCCCCCCCN(CCCCCCCCCCCC)c1nc(NCC2CCN(C)CC2)nc(SCCCCCCCCCCC)n1` [S11^2N12 D10], the “Absolute DNA transfection efficiency” value is listed as 0.0%.

For the compound `CCCCCCCCCCCCSc1nc(NCCCCCC)nc(NCCN(C)C)n1` [S12N6 D1], the “Absolute DNA transfection efficiency” value is reported as 0.3%.

Take `CCCCCCCCCCCCSc1nc(NCCCCCC)nc(NCCN2CCOCC2)n1` [S12N6 D2]: the “Absolute DNA transfection efficiency” value was 0.1%.

With `CCCCCCCCCCCCSc1nc(NCCCCCC)nc(NCCN2CCCC2)n1` [S12N6 D3], the “Absolute DNA transfection efficiency” value turned out to be 0.0%.

Take `CCCCCCCCCCCCSc1nc(NCCCCCC)nc(NCCN2CCCCC2)n1` [S12N6 D4]: the “Absolute DNA transfection efficiency” value was 0.0%.

As for `CCCCCCCCCCCCSc1nc(NCCCCCC)nc(NCCN2CCN(C)CC2)n1` [S12N6 D5], the “Absolute DNA transfection efficiency” value was 0.2%.

As for `CCCCCCCCCCCCSc1nc(NCCCCCC)nc(NCCCN(C)C)n1` [S12N6 D6], the “Absolute DNA transfection efficiency” value came out at 1.1%.

On to `CCCCCCCCCCCCSc1nc(NCCCCCC)nc(NCCN(CC)CC)n1` [S12N6 D7], for which the “Absolute DNA transfection efficiency” value was determined as 6.5%.

On to `CCCCCCCCCCCCSc1nc(NCCCCCC)nc(NCCCN2CCOCC2)n1` [S12N6 D8], for which the “Absolute DNA transfection efficiency” value worked out at 0.1%.

For `CCCCCCCCCCCCSc1nc(NCCCCCC)nc(NCCCN2CCN(C)CC2)n1` [S12N6 D9], the “Absolute DNA transfection efficiency” value is reported as 0.3%.

As to `CCCCCCCCCCCCSc1nc(NCCCCCC)nc(NCC2CCN(C)CC2)n1` [S12N6 D10], the “Absolute DNA transfection efficiency” value was 0.1%.

As for `CCCCCCCCCCCCSc1nc(NCCCCCCC)nc(NCCN(C)C)n1` [S12N7 D1], the “Absolute DNA transfection efficiency” value worked out at 6.9%.

Consider `CCCCCCCCCCCCSc1nc(NCCCCCCC)nc(NCCN2CCOCC2)n1` [S12N7 D2], for which the “Absolute DNA transfection efficiency” value came to 0.1%.

As for `CCCCCCCCCCCCSc1nc(NCCCCCCC)nc(NCCN2CCCC2)n1` [S12N7 D3], the “Absolute DNA transfection efficiency” value was determined as 3.2%.

On to `CCCCCCCCCCCCSc1nc(NCCCCCCC)nc(NCCN2CCCCC2)n1` [S12N7 D4], for which the “Absolute DNA transfection efficiency” value turned out to be 0.2%.

Consider `CCCCCCCCCCCCSc1nc(NCCCCCCC)nc(NCCN2CCN(C)CC2)n1` [S12N7 D5], for which the “Absolute DNA transfection efficiency” value was found to be 3.6%.

As for `CCCCCCCCCCCCSc1nc(NCCCCCCC)nc(NCCCN(C)C)n1` [S12N7 D6], the “Absolute DNA transfection efficiency” value stood at 11.2%.

Consider `CCCCCCCCCCCCSc1nc(NCCCCCCC)nc(NCCN(CC)CC)n1` [S12N7 D7], for which the “Absolute DNA transfection efficiency” value was 3.4%.

Consider `CCCCCCCCCCCCSc1nc(NCCCCCCC)nc(NCCCN2CCOCC2)n1` [S12N7 D8], for which the “Absolute DNA transfection efficiency” value was 0.3%.

As for `CCCCCCCCCCCCSc1nc(NCCCCCCC)nc(NCCCN2CCN(C)CC2)n1` [S12N7 D9], the “Absolute DNA transfection efficiency” value came out at 0.3%.

On to `CCCCCCCCCCCCSc1nc(NCCCCCCC)nc(NCC2CCN(C)CC2)n1` [S12N7 D10], for which the “Absolute DNA transfection efficiency” value is 5.8%.

Take `CCCCCCCCCCCCSc1nc(NCCCCCCCC)nc(NCCN(C)C)n1` [S12N8 D1]: the “Absolute DNA transfection efficiency” value amounted to 6.0%.

With `CCCCCCCCCCCCSc1nc(NCCCCCCCC)nc(NCCN2CCOCC2)n1` [S12N8 D2], the “Absolute DNA transfection efficiency” value amounted to 0.1%.

For the compound `CCCCCCCCCCCCSc1nc(NCCCCCCCC)nc(NCCN2CCCC2)n1` [S12N8 D3], the “Absolute DNA transfection efficiency” value was 1.5%.

In the case of `CCCCCCCCCCCCSc1nc(NCCCCCCCC)nc(NCCN2CCCCC2)n1` [S12N8 D4], the “Absolute DNA transfection efficiency” value was determined as 0.0%.

With `CCCCCCCCCCCCSc1nc(NCCCCCCCC)nc(NCCN2CCN(C)CC2)n1` [S12N8 D5], the “Absolute DNA transfection efficiency” value turned out to be 13.8%.

Regarding `CCCCCCCCCCCCSc1nc(NCCCCCCCC)nc(NCCCN(C)C)n1` [S12N8 D6], the “Absolute DNA transfection efficiency” value was 43.1%.

As to `CCCCCCCCCCCCSc1nc(NCCCCCCCC)nc(NCCN(CC)CC)n1` [S12N8 D7], the “Absolute DNA transfection efficiency” value was determined as 0.1%.

For `CCCCCCCCCCCCSc1nc(NCCCCCCCC)nc(NCCCN2CCOCC2)n1` [S12N8 D8], the “Absolute DNA transfection efficiency” value is on record as 0.0%.

For `CCCCCCCCCCCCSc1nc(NCCCCCCCC)nc(NCCCN2CCN(C)CC2)n1` [S12N8 D9], the “Absolute DNA transfection efficiency” value worked out at 8.9%.

On to `CCCCCCCCCCCCSc1nc(NCCCCCCCC)nc(NCC2CCN(C)CC2)n1` [S12N8 D10], for which the “Absolute DNA transfection efficiency” value was 16.3%.

In the case of `CCCCCCCCCCCCSc1nc(NCCCCCCCCC)nc(NCCN(C)C)n1` [S12N9 D1], the “Absolute DNA transfection efficiency” value is 4.5%.

As to `CCCCCCCCCCCCSc1nc(NCCCCCCCCC)nc(NCCN2CCOCC2)n1` [S12N9 D2], the “Absolute DNA transfection efficiency” value was 0.0%.

Consider `CCCCCCCCCCCCSc1nc(NCCCCCCCCC)nc(NCCN2CCCC2)n1` [S12N9 D3], for which the “Absolute DNA transfection efficiency” value is recorded as 7.0%.

Take `CCCCCCCCCCCCSc1nc(NCCCCCCCCC)nc(NCCN2CCCCC2)n1` [S12N9 D4]: the “Absolute DNA transfection efficiency” value came to 0.1%.

With `CCCCCCCCCCCCSc1nc(NCCCCCCCCC)nc(NCCN2CCN(C)CC2)n1` [S12N9 D5], the “Absolute DNA transfection efficiency” value is 20.2%.

Take `CCCCCCCCCCCCSc1nc(NCCCCCCCCC)nc(NCCCN(C)C)n1` [S12N9 D6]: the “Absolute DNA transfection efficiency” value is reported as 37.0%.

Consider `CCCCCCCCCCCCSc1nc(NCCCCCCCCC)nc(NCCN(CC)CC)n1` [S12N9 D7], for which the “Absolute DNA transfection efficiency” value was found to be 0.8%.

For `CCCCCCCCCCCCSc1nc(NCCCCCCCCC)nc(NCCCN2CCOCC2)n1` [S12N9 D8], the “Absolute DNA transfection efficiency” value stood at 0.0%.

Take `CCCCCCCCCCCCSc1nc(NCCCCCCCCC)nc(NCCCN2CCN(C)CC2)n1` [S12N9 D9]: the “Absolute DNA transfection efficiency” value worked out at 10.9%.

For `CCCCCCCCCCCCSc1nc(NCCCCCCCCC)nc(NCC2CCN(C)CC2)n1` [S12N9 D10], the “Absolute DNA transfection efficiency” value was 11.3%.

Regarding `CCCCCCCCCCCCSc1nc(NCCCCCCCCCCC)nc(NCCN(C)C)n1` [S12N11 D1], the “Absolute DNA transfection efficiency” value is reported as 3.2%.

On to `CCCCCCCCCCCCSc1nc(NCCCCCCCCCCC)nc(NCCN2CCOCC2)n1` [S12N11 D2], for which the “Absolute DNA transfection efficiency” value is on record as 0.3%.

With `CCCCCCCCCCCCSc1nc(NCCCCCCCCCCC)nc(NCCN2CCCC2)n1` [S12N11 D3], the “Absolute DNA transfection efficiency” value is given as 30.3%.

Consider `CCCCCCCCCCCCSc1nc(NCCCCCCCCCCC)nc(NCCN2CCCCC2)n1` [S12N11 D4], for which the “Absolute DNA transfection efficiency” value amounted to 1.0%.

With `CCCCCCCCCCCCSc1nc(NCCCCCCCCCCC)nc(NCCN2CCN(C)CC2)n1` [S12N11 D5], the “Absolute DNA transfection efficiency” value is given as 8.0%.

For the compound `CCCCCCCCCCCCSc1nc(NCCCCCCCCCCC)nc(NCCCN(C)C)n1` [S12N11 D6], the “Absolute DNA transfection efficiency” value is 14.9%.

With `CCCCCCCCCCCCSc1nc(NCCCCCCCCCCC)nc(NCCN(CC)CC)n1` [S12N11 D7], the “Absolute DNA transfection efficiency” value turned out to be 5.8%.

As for `CCCCCCCCCCCCSc1nc(NCCCCCCCCCCC)nc(NCCCN2CCOCC2)n1` [S12N11 D8], the “Absolute DNA transfection efficiency” value was 0.0%.

Turning to `CCCCCCCCCCCCSc1nc(NCCCCCCCCCCC)nc(NCCCN2CCN(C)CC2)n1` [S12N11 D9], the “Absolute DNA transfection efficiency” value amounted to 3.9%.

As to `CCCCCCCCCCCCSc1nc(NCCCCCCCCCCC)nc(NCC2CCN(C)CC2)n1` [S12N11 D10], the “Absolute DNA transfection efficiency” value worked out at 19.6%.

With `CCCCCCCCCCCCNc1nc(NCCN(C)C)nc(SCCCCCCCCCCCC)n1` [S12N12 D1], the “Absolute DNA transfection efficiency” value is on record as 7.9%.

For `CCCCCCCCCCCCNc1nc(NCCN2CCOCC2)nc(SCCCCCCCCCCCC)n1` [S12N12 D2], the “Absolute DNA transfection efficiency” value came to 0.0%.

For the compound `CCCCCCCCCCCCNc1nc(NCCN2CCCC2)nc(SCCCCCCCCCCCC)n1` [S12N12 D3], the “Absolute DNA transfection efficiency” value stood at 31.4%.

In the case of `CCCCCCCCCCCCNc1nc(NCCN2CCCCC2)nc(SCCCCCCCCCCCC)n1` [S12N12 D4], the “Absolute DNA transfection efficiency” value turned out to be 0.1%.

With `CCCCCCCCCCCCNc1nc(NCCN2CCN(C)CC2)nc(SCCCCCCCCCCCC)n1` [S12N12 D5], the “Absolute DNA transfection efficiency” value stood at 3.5%.

`CCCCCCCCCCCCNc1nc(NCCCN(C)C)nc(SCCCCCCCCCCCC)n1` [S12N12 D6]: the “Absolute DNA transfection efficiency” value is reported as 9.1%.

Regarding `CCCCCCCCCCCCNc1nc(NCCN(CC)CC)nc(SCCCCCCCCCCCC)n1` [S12N12 D7], the “Absolute DNA transfection efficiency” value was determined as 3.7%.

Regarding `CCCCCCCCCCCCNc1nc(NCCCN2CCOCC2)nc(SCCCCCCCCCCCC)n1` [S12N12 D8], the “Absolute DNA transfection efficiency” value amounted to 0.0%.

With `CCCCCCCCCCCCNc1nc(NCCCN2CCN(C)CC2)nc(SCCCCCCCCCCCC)n1` [S12N12 D9], the “Absolute DNA transfection efficiency” value was 5.1%.

For the compound `CCCCCCCCCCCCNc1nc(NCC2CCN(C)CC2)nc(SCCCCCCCCCCCC)n1` [S12N12 D10], the “Absolute DNA transfection efficiency” value turned out to be 9.3%.

Turning to `CCCCCCCCCCCCCNc1nc(NCCN(C)C)nc(SCCCCCCCCCCCC)n1` [S12N13 D1], the “Absolute DNA transfection efficiency” value is 1.4%.

With `CCCCCCCCCCCCCNc1nc(NCCN2CCOCC2)nc(SCCCCCCCCCCCC)n1` [S12N13 D2], the “Absolute DNA transfection efficiency” value is recorded as 0.0%.

For `CCCCCCCCCCCCCNc1nc(NCCN2CCCC2)nc(SCCCCCCCCCCCC)n1` [S12N13 D3], the “Absolute DNA transfection efficiency” value is on record as 3.6%.

The record behind these values is patent US20230123334A1, “AMINO LIPID COMPOUND, PREPARATION METHOD THEREFOR, AND APPLICATION THEREOF” (SHENZHEN SHENXIN BIOTECHNOLOGY CO., LTD., priority 2020, published 2023).
